# Measured values from patent US20250188162A1, “INHIBITOR OF INTERLEUKIN-1 RECEPTOR TYPE 1 FOR USE IN THE TREATMENT OF CANCER” (Buzzard Pharmaceuticals AB, priority 2022, published 2025).
# Tests used:
# NF-κB = NF-κB reporter response of pNGL RAW264.7 macrophages to tumor-conditioned media with bortezomib pre-treatment; format: cell-based, murine; details: pre-treatment 1 μg/mL (3 μM) for 1 hour
# Description: FIG. 3. Tumor-secreted factors drive IKKβ activation, differentiation, and IL-1β secretion in macrophages. (A) Color-coded cancer cells with Kras mutation status. (B-E) Bioluminescent images with pseudocolor scale (B, E), immunoblots (C), and data summaries (D, E) from exposure of RAW264.7 macrophages stably expressing pNGL (B-D) and murine bone marrow derived macrophages (BMDM) obtained from NGL mice after one-week 100 ng/ml M-CSF exposure (E) to cell-free tumor-conditioned media or DMEM (white boxes) with or without bortezomib pre-treatment (1 μg/mL˜3 µM for 1 hour). (D, E) n=5/group; P, probability, one or two-way ANOVA; **** and ####, P<0.0001 compared with other groups or saline-treated cells, respectively, Bonferroni post-tests. (F) Flow cytometry-assessed differentiation marker expression of murine bone marrow cells before (day 0) and after (day 7) one-week M-CSF exposure. (G) Microarray strategy and top-five differentially expressed genes (ΔGE) of murine BMDM compared with cancer cells (ΔGE1) and of tumor-conditioned BMDM compared with naïve BMDM (ΔGE2). n=5/group; P, probability, one-way ANOVA. (H) Bioluminescent images and data summary of NGL, NGL; Tnf−/−, and NGL;Il1b−/− mice 14 days post-pleural injection of LLC cells. n=13/group; P, probability, one-way ANOVA; ** and ***, P<0.01 and P<0.001, respectively, compared with NGL mice, Bonferroni post-tests. […]
# [1] = system: non-small cell lung cancer (NSCLC); details: second/third-line with docetaxel, irrespective of histologic subtype and driver mutation; cited from earlier work
# incident lung cancer = details: exploratory analysis of CANTOS; cited from earlier work
Compound,NF-κB response to KrasMUT tumor-conditioned media (NF-κB),trial outcome [1],effect against incident lung cancer (incident lung cancer)
CC(C)C[C@H](NC(=O)[C@H](Cc1ccccc1)NC(=O)c1cnccn1)B(O)O [bortezomib],attenuated,,
canakinumab: anti-IL-1β neutralizing monoclonal antibody,,negative,strong protective effects against incident lung cancer
